Experimental data taken from publication PMC3531433, “Structural Insights into Cellulolytic and Chitinolytic Enzymes Revealing Crucial Residues of Insect β-N-acetyl-D-hexosaminidase” (PLoS ONE, 2012).

Key:
OfHex1 [1] = target: T1, OfHex1 (Ostrinia furnacalis, UniProt Q06GJ0, E328A); test: inhibition of 4MU-β-GlcNAc hydrolysis, Dixon plot; format: biochemical
T1 construct: pPIC9, secreted from Pichia pastoris GS115; HisTrap and Mono Q purified; dimer with N-terminal zincin-like and C-terminal catalytic domain (residues 207-594)
T1 sequence (Q06GJ0 23-594 E328A): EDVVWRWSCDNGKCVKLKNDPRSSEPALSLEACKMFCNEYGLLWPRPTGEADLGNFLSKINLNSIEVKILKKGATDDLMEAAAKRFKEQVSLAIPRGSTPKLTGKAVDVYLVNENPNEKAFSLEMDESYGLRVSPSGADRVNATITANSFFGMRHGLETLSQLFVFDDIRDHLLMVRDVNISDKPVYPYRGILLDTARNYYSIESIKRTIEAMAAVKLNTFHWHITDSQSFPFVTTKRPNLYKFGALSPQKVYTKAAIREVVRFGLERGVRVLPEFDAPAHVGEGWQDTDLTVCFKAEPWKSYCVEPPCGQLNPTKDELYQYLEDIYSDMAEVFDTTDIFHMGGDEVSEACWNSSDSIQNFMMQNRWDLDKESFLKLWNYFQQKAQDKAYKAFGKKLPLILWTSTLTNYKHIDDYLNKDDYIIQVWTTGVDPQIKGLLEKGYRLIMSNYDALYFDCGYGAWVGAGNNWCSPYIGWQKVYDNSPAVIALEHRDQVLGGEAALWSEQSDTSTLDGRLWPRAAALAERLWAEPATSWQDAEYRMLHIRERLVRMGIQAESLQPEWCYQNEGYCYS
Text: (§1) inhibition of 4MU-β-GlcNAc hydrolysis, Dixon plot on OfHex1

OfHex1 [2] = target: T2, OfHex1 (Ostrinia furnacalis, UniProt Q06GJ0, E328Q); test: inhibition of 4MU-β-GlcNAc hydrolysis, Dixon plot; format: biochemical
T2 construct: pPIC9, secreted from Pichia pastoris GS115; HisTrap and Mono Q purified; dimer with N-terminal zincin-like and C-terminal catalytic domain (residues 207-594)
T2 sequence (Q06GJ0 23-594 E328Q): T1 sequence (Q06GJ0 23-594 E328A)
Text: as §1

SMILES: CC(=O)N[C@@H]1[C@@H](O)[C@H](O[C@@H]2O[C@H](CO)[C@@H](O[C@@H]3O[C@H](CO)[C@@H](O[C@@H]4O[C@H](CO)[C@@H](O)[C@H](O)[C@H]4[N+](C)(C)C)[C@H](O)[C@H]3NC(C)=O)[C@H](O)[C@H]2NC(C)=O)[C@@H](CO)O[C@H]1O [TMG-chitotriomycin]
- Ki (OfHex1 [1]): 2.71 µM
- Ki (OfHex1 [2]): 0.101 µM
